Results published in patent publication US20230391786A1, “cGAS INHIBITORS” (Eli Lilly and Company, priority 2022, published 2023).

Tests used:
[1] = test system: cGAS activity in THP1 cells (IFNb as marker); assay: Cellular assay to measure cGAS activity (IFNb production in PMA-differentiated THP1 cells stimulated by RDG-Adenovirus-GFP); type: cell-based, human; conditions: Homo sapiens, THP-1, THP1 cells, PMA differentiated, RDG-Adenovirus-GFP 1000 MOI, IFNb AlphaLISA, overnight incubation; read-out: IC50 (μM), Cellular assay for Compounds 95-348
Procedure, shortened: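 The readout is secreted IFNb measured by AlphaLISA after overnight compound exposure. THP1 cells, differentiated with PMA for 24 h and rested overnight, were infected with RDG-Adenovirus-GFP (1000 MOI, 4 h) before compounds were added; IC50 came from a 4-parameter logistic fit of inhibition against log concentration.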

[2] = target: recombinant human cGAS (Homo sapiens (Human), UniProt Q8N884); assay: In vitro inhibition assay of cGAS activity (cGAMP production, RapidFire mass spectrometry); type: biochemical; conditions: 10 nM recombinant human cGAS, 60 nM 75-bp dsDNA, ATP, GTP, room temperature 3 hours, read-out: IC50 (μM), In vitro inhibition assay for Compounds 95-348
Sequence of recombinant human cGAS (Q8N884 whole entry): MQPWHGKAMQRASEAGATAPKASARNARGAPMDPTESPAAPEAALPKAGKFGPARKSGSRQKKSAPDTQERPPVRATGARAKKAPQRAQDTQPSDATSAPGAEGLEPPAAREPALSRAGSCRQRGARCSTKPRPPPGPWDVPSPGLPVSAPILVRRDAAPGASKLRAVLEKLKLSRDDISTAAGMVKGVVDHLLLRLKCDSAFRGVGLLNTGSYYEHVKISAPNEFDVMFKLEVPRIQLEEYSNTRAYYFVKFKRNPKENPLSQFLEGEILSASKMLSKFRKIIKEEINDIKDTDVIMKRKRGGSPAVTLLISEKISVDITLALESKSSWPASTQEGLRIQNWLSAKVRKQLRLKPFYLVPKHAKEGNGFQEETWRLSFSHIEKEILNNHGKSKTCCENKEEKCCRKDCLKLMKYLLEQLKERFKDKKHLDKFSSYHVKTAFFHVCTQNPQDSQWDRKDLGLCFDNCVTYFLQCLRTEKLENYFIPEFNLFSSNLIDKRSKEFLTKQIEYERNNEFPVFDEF
Procedure, shortened: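 Product cGAMP was quantified by RapidFire MS against a difluoro-cGAMP internal standard after a formic acid quench. The reaction contained 10 nM recombinant full-length human cGAS, 75-bp dsDNA (60 nM), ATP and GTP (50 μM) and ran for 3 h at room temperature. IC50 values came from 4-parameter nonlinear regression.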

## CC(=O)N(C)CCC(=O)N1CCn2c(c(-c3cn[nH]c3)c3ccc(Cl)c(Cl)c32)C1 [Example 308, N-(3-(6,7-Dichloro-10-(1H-pyrazol-4-yl)-3,4-dihydropyrazino[1,2-a]indol-2(1H)-yl)-3-oxopropyl)-N-methylacetamide]
[1]
  IC50: 7.9 µM
[2]
  IC50: 0.0423 µM

## CN1CCOCC1C(=O)N1CCn2c(c(-c3cn[nH]c3)c3ccc(Cl)c(Cl)c32)C1 (stereo not shown) [Example 309, (6,7-Dichloro-10-(1H-pyrazol-4-yl)-3,4-dihydropyrazino[1,2-a]indol-2(1H)-yl)(4-methylmorpholin-3-yl)methanone]
[1]
  IC50: > 10 µM
[2]
  IC50: 0.0427 µM

## O=C(C1COCCOC1)N1CCn2c(c(-c3cn[nH]c3)c3ccc(Cl)c(Cl)c32)C1 [Example 310, (6,7-Dichloro-10-(1H-pyrazol-4-yl)-3,4-dihydropyrazino[1,2-a]indol-2(1H)-yl)(1,4-dioxepan-6-yl)methanone]
[1]
  IC50: > 10 µM
[2]
  IC50: 0.0428 µM

## O=C(CO)Nc1cc(Cl)c(Cl)c2[nH]nc(-c3cn[nH]c3)c12 [Example 336, N-(6,7-Dichloro-3-(1H-pyrazol-4-yl)-1H-indazol-4-yl)-2-hydroxyacetamide]
[1]
  IC50: 0.492 µM
[2]
  IC50: 0.0385 µM

## O=C(Nc1cc(Cl)c(Cl)c2[nH]nc(-c3cn[nH]c3)c12)C(F)F [Example 337, N-(6,7-Dichloro-3-(1H-pyrazol-4-yl)-1H-indazol-4-yl)-2,2-difluoroacetamide]
[1]
  IC50: 0.281 µM
[2]
  IC50: 0.0124 µM

## OCCCOc1cc(Cl)c(Cl)c2[nH]c(CO)c(-c3cn[nH]c3)c12 [Example 338, 3-((6,7-Dichloro-2-(hydroxymethyl)-3-(1H-pyrazol-4-yl)-1H-indol-4-yl)oxy)propan-1-ol]
[1]
  IC50: 0.198 µM
[2]
  IC50: 0.00474 µM

## CN1CCn2c(c(-c3cn[nH]c3)c3c(OCCCO)cc(Cl)c(Cl)c32)C1=O [Example 339, 6,7-Dichloro-9-(3-hydroxypropoxy)-2-methyl-10-(1H-pyrazol-4-yl)-3,4-dihydropyrazino[1,2-a]indol-1(2H)-one]
[1]
  IC50: 0.426 µM
[2]
  IC50: 0.00789 µM

## N#CCOc1cc(Cl)c(Cl)c2[nH]c(CO)c(-c3cn[nH]c3)c12 [Example 340, 2-((6,7-Dichloro-2-(hydroxymethyl)-3-(1H-pyrazol-4-yl)-1H-indol-4-yl)oxy)acetonitrile]
[1]
  IC50: 0.516 µM
[2]
  IC50: 0.0102 µM

## COc1cc2c(-c3cn[nH]c3)cn(-c3cccnn3)c2cc1Cl [Example 341, 6-Chloro-5-methoxy-3-(1H-pyrazol-4-yl)-1-(pyridazin-3-yl)-1H-indole]
[1]
  IC50: 0.8 µM
[2]
  IC50: 0.0276 µM

## COc1cc2c(-c3cn[nH]c3)cn(-c3ccc(CO)nn3)c2cc1Cl [Example 342, (6-(6-chloro-5-methoxy-3-(1H-pyrazol-4-yl)-1H-indol-1-yl)pyridazin-3-yl)methanol]
[1]
  IC50: 0.964 µM
[2]
  IC50: 0.0261 µM

## CCOc1cc(Cl)c(Cl)c2c1c(-c1cn[nH]c1)c1n2CC[C@@H]1NC(=O)CO [Example 343, (S)—N-(5,6-Dichloro-8-ethoxy-9-(1H-pyrazol-4-yl)-2,3-dihydro-1H-pyrrolo[1,2-a]indol-1-yl)-2-hydroxyacetamide]
[1]
  IC50: 0.565 µM
[2]
  IC50: 0.00614 µM

## N#CCOc1cc(Cl)c(Cl)c2c1c(-c1cn[nH]c1)c1n2CC[C@@H]1NC(=O)CO [Example 344, (S)—N-(5,6-Dichloro-8-(cyanomethoxy)-9-(1H-pyrazol-4-yl)-2,3-dihydro-1H-pyrrolo[1,2-a]indol-1-yl)-2-hydroxyacetamide]
[1]
  IC50: 0.902 µM
[2]
  IC50: 0.00338 µM

## N#CCOc1cc(Cl)c(Cl)c2c1c(-c1cn[nH]c1)c1n2CCC1CO (stereo not shown) [Example 347, 2-((5,6-Dichloro-1-(hydroxymethyl)-9-(1H-pyrazol-4-yl)-2,3-dihydro-1H-pyrrolo[1,2-a]indol-8-yl)oxy)acetonitrile]
[1]
  IC50: 0.865 µM
[2]
  IC50: 0.0122 µM

## OCCCOc1cc(Cl)c(Cl)c2c1c(-c1cn[nH]c1)c1n2CC(O)CC1 (stereo not shown) [Example 348, 3,4-Dichloro-1-(3-hydroxypropoxy)-10-(1H-pyrazol-4-yl)-6,7,8,9-tetrahydropyrido[1,2-a]indol-7-ol]
[1]
  IC50: 0.365 µM
[2]
  IC50: 0.00695 µM
